Data: ChEMBL document CHEMBL5120848, “Tapping into the antitubercular potential of 2,5-dimethylpyrroles: A structure-activity relationship interrogation” (Eur J Med Chem, 2022)
Values after ≈ are worked out from the molar mass of the structure shown. Active and inactive are the calls of the source. No cut-off for these calls is given here.

Legend:
[1] = Cytotoxicity against human MRC5 cells assessed as reduction in cell viability incubated for 24 hrs by resazurin-dye based analysis; type: toxicity
[2] = Cytotoxicity against mouse J774.A1 cells assessed as reduction in cell viability incubated for 24 hrs by resazurin-dye based analysis; type: toxicity
[3] = Selectivity index, ratio of IC50 for cytotoxicity against mouse J774.A1 cells to MIC90 for anti-tubercular activity against Mycobacterium tuberculosis H37Rv; type: toxicity, cell-based; details: read-out: Selectivity Index
[4] = Selectivity index, ratio of IC50 for cytotoxicity against human MRC5 cells to MIC90 for anti-tubercular activity against Mycobacterium tuberculosis H37Rv; type: toxicity, cell-based; details: read-out: Selectivity Index
[5] = system: Mycobacterium tuberculosis; assay: Anti-tubercular activity against Mycobacterium tuberculosis H37Rv assessed as inhibition of mycobacterial growth incubated for 7 days by resazurin-dye based analysis; type: functional; details: 168 h, time 7 day
[6] = system: Mycobacterium tuberculosis; assay: Anti-tubercular activity against Mycobacterium tuberculosis infected in mouse J774.A1 cells assessed as inhibition of intracellular bacilli growth incubated for 72 hrs; type: functional, organism-based
[7] = system: Mycobacterium tuberculosis; assay: Anti-tubercular activity against Mycobacterium tuberculosis CF152 assessed as inhibition of mycobacterial growth incubated for 7 days by resazurin-dye based analysis; type: functional; details: CF152, 168 h, time 7 day
[8] = system: Mycobacterium tuberculosis; assay: Anti-tubercular activity against Mycobacterium tuberculosis CF16 assessed as inhibition of mycobacterial growth incubated for 7 days by resazurin-dye based analysis; type: functional; details: CF16, 168 h, time 7 day
[9] = system: Mycobacterium tuberculosis; assay: Anti-tubercular activity against Mycobacterium tuberculosis CF61 assessed as inhibition of mycobacterial growth incubated for 7 days by resazurin-dye based analysis; type: functional; details: CF61, 168 h, time 7 day
[10] = system: Mycobacterium tuberculosis; assay: Anti-tubercular activity against Mycobacterium tuberculosis CF76 assessed as inhibition of mycobacterial growth incubated for 7 days by resazurin-dye based analysis; type: functional; details: CF76, 168 h, time 7 day
[11] = system: Mycobacterium tuberculosis; assay: Anti-tubercular activity against Mycobacterium tuberculosis CF161 assessed as inhibition of mycobacterial growth incubated for 7 days by resazurin-dye based analysis; type: functional; details: CF161, 168 h, time 7 day
[12] = system: Mycobacterium tuberculosis; assay: Bacteriostatic activity against Mycobacterium tuberculosis H37Rv at 1XMIC measured for 12 days by time-kill kinetics analysis; type: functional, organism-based; details: time 12.0 day
[13] = system: Mycobacterium tuberculosis; assay: Bactericidal activity against Mycobacterium tuberculosis H37Rv assessed as log reduction of bacterial colonies at 1XMIC measured on day 12 by time-kill kinetics analysis (reference value: 7.54 log10CFU/ml); type: functional; details: time 12 day

Structure (SMILES)	IC50 at 24 h [1] [µg/mL]	IC50 at 24 h [2] [µg/mL]	selectivity ratio [3]	selectivity ratio [4]	MIC90 [5] [µg/mL]	further results
Cc1cc(CNCC2CCCCC2)c(C)n1C1CCCCC1	26.7 (≈ 88.3 µM)	12 (≈ 39.6 µM)	6.89	15.3	1.74 (≈ 5.75 µM)	–
Cc1ccc(-n2c(C)cc(CNCC3CCCCC3)c2C)cc1	15.6 (≈ 50.2 µM)	25.1 (≈ 80.7 µM)	5.13	3.19	4.88 (≈ 15.7 µM)	–
Cc1cc(CNCc2ccccc2)c(C)n1CC1CCCCC1	18.3 (≈ 58.8 µM)	13.4 (≈ 43.3 µM)	2.04	2.78	6.58 (≈ 21.2 µM)	–
COc1c(N2C[C@@H]3CCCN[C@@H]3C2)c(F)cc2c(=O)c(C(=O)O)cn(C3CC3)c12 [MOXIFLOXACIN]	> 100	14.6 (≈ 36.3 µM)	209	1430	≤ 0.07	Activity [6]: Active; MIC90 [7]: 0.57 µg/mL (≈ 1.42 µM); MIC90 [8]: 0.14 µg/mL (≈ 0.349 µM); MIC90 [9]: 0.27 µg/mL (≈ 0.673 µM); MIC90 [10]: 0.2 µg/mL (≈ 0.498 µM); MIC90 [11]: 0.17 µg/mL (≈ 0.423 µM)
Cc1cc(CNCC2CCCCC2)c(C)n1Cc1ccc(Cl)cc1	10.8 (≈ 31.2 µM)	5.92 (≈ 17.2 µM)	4.25	7.71	1.39 (≈ 4.03 µM)	–
Cc1cc(CNCC2CCCCC2)c(C)n1-c1ccccn1	–	–	–	–	16.3 (≈ 54.7 µM)	–
CO[C@H]1/C=C/O[C@@]2(C)Oc3c(C)c(O)c4c(O)c(c(/C=N/N5CCN(C)CC5)c(O)c4c3C2=O)NC(=O)/C(C)=C\C=C\[C@H](C)[C@H](O)[C@@H](C)[C@@H](O)[C@@H](C)[C@H](OC(C)=O)[C@@H]1C [RIFAMPIN]	–	–	–	–	0.05 (≈ 0.0608 µM)	MIC90 [7]: > 25 µg/mL; MIC90 [8]: 0.2 µg/mL (≈ 0.243 µM); MIC90 [9]: > 25 µg/mL; MIC90 [10]: > 25 µg/mL; MIC90 [11]: > 25 µg/mL
Cc1cc(CNCc2ccccc2)c(C)n1C1CCCC1	–	–	–	–	13.4 (≈ 47.6 µM)	–
Cc1cc(CNCCCCCCCCNC(=N)N)c(C)n1-c1ccc(OCC(=O)N(C)C)cc1.Cl.Cl	36	12.8	1.43	4.04	8.91	–
Cc1cc(CNC2CCCCC2)c(C)n1-c1ccc(C(=O)O)cc1	–	–	–	–	> 25	–
CCOc1ccc(-n2c(C)cc(CNC3CCCCC3)c2C)cc1	19.9 (≈ 61 µM)	9.17 (≈ 28.1 µM)	1.78	3.87	5.14 (≈ 15.7 µM)	–
Cc1cc(CNCc2ccccc2)c(C)n1C(C)c1ccccc1 (centres undefined)	33.3 (≈ 105 µM)	17.6 (≈ 55.1 µM)	2.21	4.2	7.94 (≈ 24.9 µM)	–
Cc1cc(CNCC2CCCCC2)c(C)n1Cc1ccc(F)cc1	21 (≈ 63.9 µM)	9.88 (≈ 30.1 µM)	13.6	28.8	0.73 (≈ 2.22 µM)	Activity [6]: Active; MIC90 [7]: 7.53 µg/mL (≈ 22.9 µM); Activity [12]: Active; MIC90 [8]: 7.69 µg/mL (≈ 23.4 µM); MIC90 [9]: 9.38 µg/mL (≈ 28.6 µM); MIC90 [10]: 18.8 µg/mL (≈ 57.2 µM); MIC90 [11]: 7.31 µg/mL (≈ 22.3 µM)
Cc1cc(CNNC(=O)c2ccncc2)c(C)n1-c1ccc(Cl)cc1	96.1 (≈ 271 µM)	78.5 (≈ 221 µM)	–	–	–	–
Cc1cc(CNCc2ccccc2)c(C)n1Cc1ccc(F)cc1	16.2 (≈ 50.1 µM)	15.7 (≈ 48.7 µM)	2.26	2.32	6.96 (≈ 21.6 µM)	–
Cc1cc(CNC2CCC(NC(=N)N)CC2)c(C)n1-c1ccc(Cl)cc1.Cl.Cl (centres undefined)	–	–	–	–	10.4	–

Structure (SMILES)	IC50 at 24 h [1] [µg/mL]	IC50 at 24 h [2] [µg/mL]	selectivity ratio [3]	selectivity ratio [4]	MIC90 [5] [µg/mL]	further results
Cc1cc(CNCC2CCCCC2)c(C)n1C(C)c1ccccc1 (centres undefined)	23.4 (≈ 72.2 µM)	60.6 (≈ 187 µM)	13.5	5.23	4.48 (≈ 13.8 µM)	Activity [6]: Active; Activity [13]: 3.94 log10CFU/ml; MIC90 [7]: 4.32 µg/mL (≈ 13.3 µM); MIC90 [8]: 8.7 µg/mL (≈ 26.8 µM); MIC90 [9]: 10.2 µg/mL (≈ 31.3 µM); MIC90 [10]: 9.13 µg/mL (≈ 28.1 µM); MIC90 [11]: 9.94 µg/mL (≈ 30.6 µM)
Cc1cc(CNC2CCC(N)CC2)c(C)n1-c1ccc(Cl)cc1.Cl.Cl (centres undefined)	–	–	–	–	> 25	–
Cc1cc(CNCC2CCCCC2)c(C)n1Cc1ccccn1	–	–	–	–	23 (≈ 73.9 µM)	–
Cc1cc(CNCCCCNC(=N)N)c(C)n1-c1ccc(Cl)cc1.Cl.Cl	–	–	–	–	14.2	–
Cc1cc(CNC2CCCCC2)c(C)n1-c1ccc(OCC(=O)O)cc1	–	–	–	–	16.4 (≈ 45.9 µM)	–
Cc1cc(CNCCCCCCCCNC(=N)N)c(C)n1-c1ccc(OCC(=O)O)cc1.Cl.Cl	–	–	–	–	13.2	–
Cc1cc(CNCc2ccccc2)c(C)n1-c1nc2ccccc2s1	–	–	–	–	11.2 (≈ 32.1 µM)	–
Cc1cc(CNCc2ccccc2)c(C)n1-c1ccccn1	–	–	–	–	> 25	–
Cc1cc(CNC2CCCCC2)c(C)n1-c1ccc(OCC(=O)N(C)C)cc1	–	–	–	–	> 25	–
NNC(=O)c1ccncc1 [ISONIAZID]	–	–	–	–	0.11 (≈ 0.802 µM)	Activity [6]: Active; MIC90 [7]: > 25 µg/mL; MIC90 [8]: > 25 µg/mL; MIC90 [9]: > 25 µg/mL; MIC90 [10]: > 25 µg/mL; MIC90 [11]: > 25 µg/mL
Cc1cc(CNCC2CCCCC2)c(C)n1C1CCCC1	–	–	–	–	9.21 (≈ 31.9 µM)	–
Cc1cc(CNCC2CCCCC2)c(C)n1-c1nc2ccccc2s1	10.3 (≈ 29.2 µM)	8.47 (≈ 24 µM)	21.2	25.8	0.4 (≈ 1.13 µM)	Activity [6]: Active; MIC90 [7]: 10.9 µg/mL (≈ 30.9 µM); Activity [12]: Active; MIC90 [8]: 20.1 µg/mL (≈ 56.9 µM); MIC90 [9]: 23.5 µg/mL (≈ 66.5 µM); MIC90 [10]: 19.6 µg/mL (≈ 55.5 µM); MIC90 [11]: 13.6 µg/mL (≈ 38.5 µM)
Cc1cc(CNCc2ccccc2)c(C)n1Cc1ccc(Cl)cc1	–	–	–	–	10.6 (≈ 31.1 µM)	–
Cc1cc(CNCC2CCCCC2)c(C)n1-c1ccccc1	–	–	–	–	0.3 (≈ 1.01 µM)	–
NCC[C@H](O)C(=O)N[C@@H]1C[C@H](N)[C@@H](O[C@H]2O[C@H](CN)[C@@H](O)[C@H](O)[C@H]2O)[C@H](O)[C@H]1O[C@H]1O[C@H](CO)[C@@H](O)[C@H](N)[C@H]1O [AMIKACIN]	–	–	–	–	0.25 (≈ 0.427 µM)	MIC90 [7]: 0.19 µg/mL (≈ 0.324 µM); MIC90 [8]: 0.22 µg/mL (≈ 0.376 µM); MIC90 [9]: 0.91 µg/mL (≈ 1.55 µM); MIC90 [10]: 0.25 µg/mL (≈ 0.427 µM); MIC90 [11]: 0.24 µg/mL (≈ 0.41 µM)
Cc1ccc(-n2c(C)cc(CNCc3ccccc3)c2C)cc1	13.7 (≈ 45 µM)	94 (≈ 309 µM)	15.8	2.3	5.58 (≈ 18.3 µM)	Activity [13]: 2.65 log10CFU/ml; MIC90 [7]: 6.35 µg/mL (≈ 20.9 µM); MIC90 [8]: 7.51 µg/mL (≈ 24.7 µM); MIC90 [9]: 9.16 µg/mL (≈ 30.1 µM); MIC90 [10]: 8.18 µg/mL (≈ 26.9 µM); MIC90 [11]: 6.12 µg/mL (≈ 20.1 µM)
